Assay [1] deals with Staphylococcus epidermidis. In words: Antibacterial activity against oxacillin-sensitive Staphylococcus epidermidis ATCC 12228 at 0.25 ug/ml after 18 hrs. The format is functional, organism-based.
Assay [2] has as its system Staphylococcus epidermidis. The assay can be described thus: Antibacterial activity against oxacillin-sensitive Staphylococcus epidermidis ATCC 12228 assessed as reduction in number of viable biofilm associated bacteria in presence of dispersin B. The format is functional, organism-based.

The values that follow come from ChEMBL document CHEMBL1155171, “Synergistic activity of dispersin B and cefamandole nafate in inhibition of staphylococcal biofilm growth on polyurethanes” (Antimicrob Agents Chemother, 2007).

The structures appear in SMILES notation. Calls of active or inactive are those of the source. No cut-off for these calls is given here.

As for `Cn1nnnc1SCC1=C(C(=O)O)N2C(=O)[C@@H](NC(=O)[C@H](OC=O)c3ccccc3)[C@H]2SC1`, the outcome in assay [1] and in assay [2] was Active.
